From publication PMC12019583 (Journal of Neurochemistry, 2025)
Where “and” joins values, the source holds several entries; their conditions need not be identical. Equal values may be shown once. Read-outs that look alike come from different tables or passages of the source.

Tests used:
[1] = target: T1, human SERT (Homo sapiens, UniProt P31645); experiment: Whole-cell patch-clamp recordings of 5-HT-induced currents in HEK293 cells expressing human SERT; type: cell-based; settings: for effect on serotonin-induced inwardly directed current: 10 μM, 5-HT 10 μM
Protocol: Whole‐cell patch‐clamp recordings were performed as recently described (Niello et al. [2023]). HEK293 cells stably expressing wild‐type GFP‐tagged human SERT were seeded at low density on poly‐D‐lysine‐coated dishes. Twenty hours after seeding, these cells were subjected to patch‐clamp recordings in the whole‐cell configuration. […] The internal solution in the patch pipette contained 133 mM potassium gluconate (CH2OH(CHOH)4COOK), 5.9 mM NaCl, 1 mM CaCl2, 0.7 mM MgCl2, 10 mM HEPES, 10 mM EGTA (pH adjusted to 7.2 with KOH). Drugs were applied using a 4‐tube ALA perfusion manifold (NPI Electronic GmbH, Germany) and a DAD‐12 superfusion system (Adams & List, Westbury, NY, USA) allowing for complete solution exchange around the cells within 100 ms. Currents were recorded via an Axopatch 200B amplifier (MDS Analytical Technologies, Sunnyvale, California) and analyzed using Clampfit 10.2 software. Passive holding currents were subtracted, and the traces were filtered using a 100 Hz digital Gaussian low‐pass filter.
(§1) The symbols represent three to four experiments performed in triplicate on different days, the error bars denote standard deviation. The red curves indicate the conditions promoting the optical switching (at a wavelength of 365 nm), the black curves indicate standard illumination. […] The rate of current recovery upon removal of (Z)‐9 from the bath solution (i.e., k off) was estimated by a fit of a monoexponential function to the current trace (see solid red line). […] Panel d: Viability assay employing trypan blue. […] PAR = paroxetine.

[2] = target: T1, human SERT; experiment: Uptake inhibition of [3H]5-HT in HEK293 cells stably expressing YhSERT; type: cell-based; settings: for IC50: [3H]5-HT uptake, read-out: SERT IC50 ± SD
Protocol: (§2) The cells were cultured in a humidified atmosphere (37°C, 5% CO2) on standard plastic culture ware. To maintain the selection pressure for the stable cell lines, 150 units/mL Geneticin was added. Cells were typically not passaged over 25 times.
(§3) After 10 min, the preincubation solution was replaced by 0.05 mL/well KHB still containing the substance of interest and tritiated substrate additionally (50 nM [^3H]MPP^+ for the YhDAT; 100 nM [^3H]5HT for the YhSERT; 30 nM [^3H]GABA for the YhGAT1, hGAT3 and YrGAT1 and 20 nM [^3H]MPP^+ for the hNET) maintaining UV light treatment/no additional light treatment. Substrate uptake was stopped after 1 min (for [^3H]5HT) or 3 min (for [^3H]GABA and [^3H]MPP^+), respectively, by exchange of the substrate‐containing buffer with 0.2 mL/well ice‐cold KHB. The KHB was aspirated immediately, and the cells were lysed in 0.2 mL 1% SDS, transferred to 6‐mL scintillation vials, and assayed for [^3H] content by liquid scintillation counting.
(§4) Data from uptake experiments were subjected to non‐linear, least squares curve fitting to equations for a rectangular hyperbola using a Marquardt–Levenberg algorithm (GraphPad Prism v.9).

[3] = target: hNET (Homo sapiens, UniProt P23975); experiment: Uptake inhibition of [3H]MPP+ in HEK293 cells stably expressing hNET; type: cell-based; settings: for loss in affinity at NET in comparison with paroxetine (factor): basal light; for reduction in IC50 by optical switching at NET: basal vs 365 nm; for IC50: [3H]MPP+ uptake, read-out: NET IC50 ± SD
Protocol: as §2, §3, §4

[4] = target: human DAT (Homo sapiens, UniProt Q01959); experiment: Uptake inhibition of [3H]MPP+ in HEK293 cells stably expressing YhDAT; type: cell-based; settings: for loss in affinity at DAT in comparison with paroxetine (factor): basal light; for effect of optical switching on inhibitory potency at DAT: basal vs 365 nm; for IC50: [3H]MPP+ uptake, read-out: DAT IC50 ± SD
Protocol: as §2, §3, §4

[5] = target: T2, rat GAT1 (Rattus norvegicus, UniProt P23978); experiment: Uptake inhibition of [3H]GABA in HEK293 cells expressing YrGAT1; type: cell-based; settings: for IC50: [3H]GABA uptake, read-out: rGAT IC50 ± SD
T2 construct: expressed in transfected cells
Protocol: as §2, §3, §4

[6] = target: T3, human GAT1 (Homo sapiens, UniProt P30531); experiment: Uptake inhibition of [3H]GABA in HEK293 cells expressing YhGAT1; type: cell-based; settings: for IC50: [3H]GABA uptake, read-out: hGAT1 IC50 ± SD
T3 construct: expressed in transfected cells; host or cells: HEK293
Protocol: as §2, §3, §4

[7] = target: T4, human GAT3 (Homo sapiens, UniProt P48066); experiment: Uptake inhibition of [3H]GABA in HEK293 cells expressing hGAT3; type: cell-based; settings: for IC50: [3H]GABA uptake, read-out: hGAT3 IC50 ± SD
T4 construct: expressed in transfected cells; host or cells: HEK293
T4 sequence (P48066 1-632): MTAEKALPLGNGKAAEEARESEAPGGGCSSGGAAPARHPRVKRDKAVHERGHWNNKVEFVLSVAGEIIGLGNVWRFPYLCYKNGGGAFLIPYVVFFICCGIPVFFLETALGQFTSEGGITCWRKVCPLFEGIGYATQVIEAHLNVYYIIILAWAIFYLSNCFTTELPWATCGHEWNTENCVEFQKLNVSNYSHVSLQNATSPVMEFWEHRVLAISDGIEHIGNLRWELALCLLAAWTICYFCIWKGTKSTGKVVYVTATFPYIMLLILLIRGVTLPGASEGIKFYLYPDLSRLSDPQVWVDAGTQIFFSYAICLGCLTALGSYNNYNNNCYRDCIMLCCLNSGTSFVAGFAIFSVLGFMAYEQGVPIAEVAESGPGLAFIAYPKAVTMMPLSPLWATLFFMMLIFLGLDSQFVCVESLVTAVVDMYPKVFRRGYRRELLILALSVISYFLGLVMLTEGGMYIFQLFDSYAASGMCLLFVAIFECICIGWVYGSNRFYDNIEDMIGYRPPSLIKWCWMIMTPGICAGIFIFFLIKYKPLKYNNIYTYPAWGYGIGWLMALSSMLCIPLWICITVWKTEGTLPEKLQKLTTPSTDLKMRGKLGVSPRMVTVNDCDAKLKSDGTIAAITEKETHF
Protocol: as §2, §3, §4

[8] = system: HEK293 cells; experiment: Viability assay employing trypan blue; type: cell-based, human; settings: dose-dependent, up to high concentrations, DMSO positive control
From the text: as §1

[9] = UHPLC-TOF-MS quantification of (E)/(Z) isomer content in photostationary state; type: physicochemical; settings: after irradiation 365 nm 30 s; 10 μM; several solvents (DMSO and aqueous)
Protocol: Additionally, quantification measurements with UHPLC‐TOF‐MS were conducted to determine the efficiency of the (E) to (Z) isomerization of azo‐paroxetine. […] Moreover, biological uptake inhibition assay conditions were mimicked during the switching experiments by choosing respective solvents and sample concentrations. Samples representing the dark state were taken before irradiation, samples representing the (Z)‐state were obtained after irradiation with […] (intensity 600 mW/cm^2 10 mm focusing lens, λ 365 nm) for 30 s. […] Bandara and Burdette [2012]). […] Switching concentration 10 μM, concentration in UHPLC‐TOF‐MS sample 1 μM, UHPLC‐TOF‐MS sample preparation with water/acetonitrile 90/10.

[10] = Thermal (Z)/(E) isomerization half-life by UV/Vis; type: physicochemical; settings: (Z)-isomer; 50 μM in dry DMSO, 23 °C; read-out: half-life time of thermal (Z)/(E) isomerization (converted)
Protocol: The rough experimental half-life time of the ( Z)-isomer of compound 9 was determined on a UV-1800 UV/Vis spectrophotometer from Shimadzu at 23 °C. A 50 μM sample of the compound in dry DMSO was irradiated with 365 nm for 5 seconds using the respective OmniCure® LED head at 100% power. Once the highest possible (Z)-isomer content was reached, the absorption at 331 nm, the ( E)-isomer’s absorption maximum l max, was regularly measured over the course of 12 hours. […]
of the thermal ( Z)/(E) isomerization.
A mathematical fitting function was used to linearize the obtained absorption data over time according to Equation S1.
AAllllllllllllllllllll = ln (AAmmllmm − AAtt )
Equation S1. Linear fit used for absorption AA .
The linearized absorption value gained by equation S1 was plotted over time and a linear fit function was applied. The obtained fit function gave the rate constant k as its slope value.
Next, the half- life time was calculated according to Equation S2. The resulting graph is shown […]
Equation S2. Calculation of half-life ττ1/2 time from rate constant kk .
This method of thermal half- life time determination wa s sufficiently precise for the […]
been shown (Singer et al, 2023) to yield similar results as compiling an Eyring plot for half-life time determination without the compound relax ing back to nearly 100% (E)-isomer.
Graph S1. […]

[11] = target: NET; parameters: method as in Kristensen et al. [2011]; Owens et al. [2001]; settings: ref Kristensen et al. [2011]; Owens et al. [2001]; cited from earlier work

Sequence of hNET (P23975 whole entry): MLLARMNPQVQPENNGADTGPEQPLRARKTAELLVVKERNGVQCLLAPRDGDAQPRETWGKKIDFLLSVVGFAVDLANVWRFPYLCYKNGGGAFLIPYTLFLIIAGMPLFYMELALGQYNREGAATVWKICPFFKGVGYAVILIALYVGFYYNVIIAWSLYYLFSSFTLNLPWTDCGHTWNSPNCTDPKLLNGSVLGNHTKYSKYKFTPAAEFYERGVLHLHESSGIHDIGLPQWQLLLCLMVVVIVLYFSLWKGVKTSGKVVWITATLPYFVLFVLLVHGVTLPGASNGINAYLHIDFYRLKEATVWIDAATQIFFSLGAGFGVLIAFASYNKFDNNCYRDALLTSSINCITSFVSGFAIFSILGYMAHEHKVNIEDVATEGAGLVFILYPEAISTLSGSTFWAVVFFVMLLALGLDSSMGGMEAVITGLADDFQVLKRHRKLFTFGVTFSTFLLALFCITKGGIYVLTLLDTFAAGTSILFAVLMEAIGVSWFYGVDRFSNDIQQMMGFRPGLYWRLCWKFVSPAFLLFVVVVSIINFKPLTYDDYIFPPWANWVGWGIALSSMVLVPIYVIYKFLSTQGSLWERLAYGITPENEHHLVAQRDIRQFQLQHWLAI
Sequence of human DAT (Q01959 whole entry): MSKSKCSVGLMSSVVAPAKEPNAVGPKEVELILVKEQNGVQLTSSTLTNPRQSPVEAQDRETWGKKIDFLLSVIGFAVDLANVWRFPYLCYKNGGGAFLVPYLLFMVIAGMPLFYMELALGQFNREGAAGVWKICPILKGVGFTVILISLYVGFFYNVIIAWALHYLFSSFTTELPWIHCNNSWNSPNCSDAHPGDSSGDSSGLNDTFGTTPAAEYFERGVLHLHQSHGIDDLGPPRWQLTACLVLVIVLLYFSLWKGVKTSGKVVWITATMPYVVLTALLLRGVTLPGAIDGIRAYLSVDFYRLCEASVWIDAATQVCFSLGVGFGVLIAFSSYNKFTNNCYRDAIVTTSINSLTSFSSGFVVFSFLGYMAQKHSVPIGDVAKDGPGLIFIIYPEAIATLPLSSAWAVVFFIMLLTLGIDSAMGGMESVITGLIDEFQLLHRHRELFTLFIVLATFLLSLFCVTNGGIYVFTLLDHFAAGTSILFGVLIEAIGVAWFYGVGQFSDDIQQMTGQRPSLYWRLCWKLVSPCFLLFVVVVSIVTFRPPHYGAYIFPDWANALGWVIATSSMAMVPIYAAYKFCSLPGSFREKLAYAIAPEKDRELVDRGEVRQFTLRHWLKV
T3 sequence (P30531 whole entry): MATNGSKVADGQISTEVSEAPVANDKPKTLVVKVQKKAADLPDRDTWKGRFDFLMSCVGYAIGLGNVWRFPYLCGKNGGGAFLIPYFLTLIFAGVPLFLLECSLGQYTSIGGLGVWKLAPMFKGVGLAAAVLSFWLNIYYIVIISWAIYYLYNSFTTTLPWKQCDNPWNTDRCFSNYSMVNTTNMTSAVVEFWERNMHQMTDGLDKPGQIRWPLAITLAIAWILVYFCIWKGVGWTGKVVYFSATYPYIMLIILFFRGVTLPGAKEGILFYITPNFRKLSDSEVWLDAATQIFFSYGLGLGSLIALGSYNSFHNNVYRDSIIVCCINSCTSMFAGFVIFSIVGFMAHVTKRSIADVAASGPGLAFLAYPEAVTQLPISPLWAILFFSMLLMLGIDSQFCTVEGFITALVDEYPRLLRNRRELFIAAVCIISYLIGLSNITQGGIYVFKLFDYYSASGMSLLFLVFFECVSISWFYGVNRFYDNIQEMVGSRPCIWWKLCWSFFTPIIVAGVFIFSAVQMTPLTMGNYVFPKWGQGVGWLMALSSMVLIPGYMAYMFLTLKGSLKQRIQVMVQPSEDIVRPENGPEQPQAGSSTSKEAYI
T1 sequence (P31645 whole entry, the tested form may be a part): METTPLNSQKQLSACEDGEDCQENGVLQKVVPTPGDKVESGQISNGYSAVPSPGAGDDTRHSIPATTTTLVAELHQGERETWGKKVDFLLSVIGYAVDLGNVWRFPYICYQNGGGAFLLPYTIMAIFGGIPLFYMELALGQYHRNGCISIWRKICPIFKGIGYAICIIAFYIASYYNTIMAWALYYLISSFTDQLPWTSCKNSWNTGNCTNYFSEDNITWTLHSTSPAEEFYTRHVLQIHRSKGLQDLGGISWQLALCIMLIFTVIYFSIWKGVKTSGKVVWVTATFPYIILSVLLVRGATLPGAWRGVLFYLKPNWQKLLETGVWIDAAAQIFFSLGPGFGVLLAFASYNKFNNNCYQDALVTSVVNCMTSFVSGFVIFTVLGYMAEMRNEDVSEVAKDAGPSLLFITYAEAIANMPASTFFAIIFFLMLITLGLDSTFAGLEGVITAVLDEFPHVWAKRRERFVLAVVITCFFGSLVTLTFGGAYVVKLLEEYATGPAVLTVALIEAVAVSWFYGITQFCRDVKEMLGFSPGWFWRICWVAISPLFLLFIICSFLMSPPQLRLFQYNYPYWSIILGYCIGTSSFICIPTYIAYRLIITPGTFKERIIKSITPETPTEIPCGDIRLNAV

c1ccc(/N=N/c2ccc([C@@H]3CCNC[C@H]3COc3ccc4c(c3)OCO4)cc2)cc1 [(E)‐azo‐paroxetine (9)]
effect on serotonin-induced inwardly directed current ([1]; (E)-isomer, standard light): marginal blockade

c1ccc(/N=N/c2ccc([C@@H]3CCNC[C@H]3COc3ccc4c(c3)OCO4)cc2)cc1 [Azo‐paroxetine (9)]
loss in affinity at SERT in comparison with parent compound paroxetine (factor) ([2]; basal light): 171 fold
IC50 ([2]; λ 365 nm (PSS, mainly (Z)-isomer)): 0.76 ± 0.18 µM
IC50 ([2]; λ basal (standard light, (E)-isomer)): 9.23 ± 3.06 µM
loss in affinity at NET in comparison with paroxetine (factor) ([3]; listed as azo‐paroxetine): ~ 5
loss in affinity at NET in comparison with paroxetine (factor) ([3]; listed as azo‐paroxetine (9)): 2 to 5
reduction in IC50 by optical switching at NET ([3]; listed as azo‐paroxetine): 2 to 3 fold
reduction in IC50 by optical switching at NET ([3]; listed as azo‐paroxetine (9)): ~threefold
IC50 ([3]; λ 365 nm): 5.41 ± 3.32 µM
IC50 ([3]; λ basal): 15.4 ± 4.04 µM
loss in affinity at DAT in comparison with paroxetine (factor) ([4]; listed as azo‐paroxetine): ~ 3.7
loss in affinity at DAT in comparison with paroxetine (factor) ([4]; listed as azo‐paroxetine (9)): 2 to 5
effect of optical switching on inhibitory potency at DAT ([4]; listed as azo‐paroxetine): 2 to 3 fold
effect of optical switching on inhibitory potency at DAT ([4]; listed as azo‐paroxetine (9)): 1.7 fold
IC50 ([4]; λ 365 nm): 3.77 ± 0.79 µM
IC50 ([4]; λ basal): 6.33 ± 2.06 µM
improvement of affinity at rat GAT1 relative to paroxetine [5]: around two to three‐fold
IC50 ([5]; λ 365 nm): 126 ± 20.6 µM
IC50 ([5]; λ basal): 88.9 ± 11.8 µM
IC50 ([6]; λ 365 nm): 107 ± 15 µM
IC50 ([6]; λ basal): 80.8 ± 21.6 µM
IC50 ([7]; λ 365 nm): 90.5 ± 24.4 µM
IC50 ([7]; λ basal): 55 ± 16.4 µM
koff ([1]; HEK293, photoequilibrated (365 nm) state, n = 5, read-out: off-rate (k off)): 0.18 ± 0.031 s⁻¹
effect on serotonin-induced inwardly directed current ([1]; photoequilibrated (365 nm)): completely abolished the inwardly directed current
cellular toxicity effects (trypan blue viability) ([8]; listed as azo‐paroxetine): did not find any significant toxic impact
(Z)-isomer content in photostationary state [9]: 83%–87% and 83%
half-life at 50 μM [10]: 156 h

Fc1ccc([C@@H]2CCNC[C@H]2COc2ccc3c(c2)OCO3)cc1 [Paroxetine, paroxetine, reference compound]
IC50 ([5]; λ basal): 264 ± 140 µM
IC50 ([6]; λ basal): 122 ± 81 µM
IC50 ([7]; λ basal): 51 ± 3.7 µM
Ki [11]: 0.156 ± 0.029 µM

azobenzene [reference compound]
inhibitory effect on [3H]5-HT uptake at human SERT ([2]; concentrations up to 1 mM, basal and 365 nm): could not really observe any significant inhibitory effects
inhibition of GABA uptake at rat GAT1 ([5]; (E)-configuration): comparable to the value of the human GAT1
inhibition of GABA uptake at human GAT1 ([6]; (E)-configuration, up to 1 mM): up to 40%
inhibition of GABA uptake at human GAT3 ([7]; up to 1 mM): more than 60%
cellular toxicity effects (trypan blue viability) [8]: neither azo‐paroxetine (9) nor azobenzene
